Data as given in patent US20240173329A1, “BELVARAFENIB FOR USE IN TREATMENT OF BRAIN CANCERS” (Genentech, Inc., priority 2021, published 2024).

How the values were obtained:
[1] = Pharmacokinetic profile and brain distribution in mice after oral administration; type: in vivo, mice (ICR); settings: for Kp / Cmax / Tmax / AUC(0-t) / MRT last / half-life / AUC(0-inf): ICR (CD-1), mouse
Description: Example 1 evaluated pharmacokinetic profile and brain distribution of belvarafenib in mice after oral administration.
The mouse strain was ICR (CD-1®) supplied by Orient Bio Inc., Korea.
(§1) The mice were kept in conventional animal lab cages for 5 days for acclimation before the start of the experiment. The cages were polysulfone 1291H (W425×D266×H185 mm, Techniplast, Italy). Twelve mice were housed in each cage at a temperature of 22±2° C., a relative humidity of 50±20%, a ventilation frequency of 10-15 times/h, a 12 hour light/dark cycle, a light intensity of 150-300 Lux, at least weekly cage replacement. The mice were fed Picolab Rodent diet (5053, Lab Diet, USA) with abundant tap water.
(§2) The mice were dosed with belvarafenib dihydrochloride, 99.6% purity, that was stored at room temperature. Dosing was based on active ingredient free base and was corrected for assay and water content. The dosing vehicle was DMSO (5%), cremophore EL (5%), and deionized water (90%). Belvarafenib for dosing (28.08 mg) was dissolved in 14.40 mL of the vehicle for a final concentration of 1.950 mg/mL.
In a single one day dosing regimen, mice were fasted overnight. The body weight of the mice was measured on the day of treatment, from which dosing volumes were set. […] The mice were fed 4 hours post-dose.
Blood (0.3 mL) was collected from the retro-orbital plexus at 0.5, 1, 2, 4, 7, 24, 48, and 72 hours after belvarafenib administration. Plasma was obtained by centrifugation at 12,000 rpm for 2 minutes (Eppendorf) and then harvested and stored at −20° C. (Panasonic, MDF-U334-PK) until analysis.
(§3) After bloodletting of mice at each time point, the brain was collected immediately without perfusion. Brain tissue was washed one to two times with saline to remove surface blood. The brains were then trimmed. The collected brain tissue was accurately weighed and mixed with 4-fold saline based on brain weight (a final dilution factor of 5-fold). Each brain sample was then homogenized and placed in a 1.5 mL tube and stored at −20° C. (Panasonic, MDF-U334-PK) until analysis.
(§4) Plasma and brain of untreated animals were similarly obtained for use as a blank matrix.
(§5) Plasma and brain concentrations of belvarafenib determined by analysis using LC-MS/MS (Waters UPLC H-Class/Xevo TQ (Waters USA)).
(§6) Pharmacokinetic parameters of belvarafenib were calculated from plasma and brain concentration-time data by a non-compartmental method using Phoenix™ WinNonlin 8.1 (Certara, USA). The peak plasma and brain concentration (Cmax) and the corresponding time (Tmax) were directly obtained from the raw data. The area under the plasma curve (AUClast) was obtained by linear-log trapezoidal summation. Other PK parameters such as AUC from dosing time extrapolated to infinity (AUCinf), half-life (t1/2) and mean residence time (MTRlast) were calculated using WinNonlin. The plasma and brain concentrations of belvarafenib were presented as MEAN±S.D. The brain to plasma (B/P) ratio of Belvarafenib was calculated by dividing AUClast in the brain by AUClast in the plasma.

EPHA7 = EPHA7 (Homo sapiens, UniProt Q15375); experiment: panel of 189 kinase assays; type: biochemical
Sequence of EPHA7 (Q15375 28-998, species assumed): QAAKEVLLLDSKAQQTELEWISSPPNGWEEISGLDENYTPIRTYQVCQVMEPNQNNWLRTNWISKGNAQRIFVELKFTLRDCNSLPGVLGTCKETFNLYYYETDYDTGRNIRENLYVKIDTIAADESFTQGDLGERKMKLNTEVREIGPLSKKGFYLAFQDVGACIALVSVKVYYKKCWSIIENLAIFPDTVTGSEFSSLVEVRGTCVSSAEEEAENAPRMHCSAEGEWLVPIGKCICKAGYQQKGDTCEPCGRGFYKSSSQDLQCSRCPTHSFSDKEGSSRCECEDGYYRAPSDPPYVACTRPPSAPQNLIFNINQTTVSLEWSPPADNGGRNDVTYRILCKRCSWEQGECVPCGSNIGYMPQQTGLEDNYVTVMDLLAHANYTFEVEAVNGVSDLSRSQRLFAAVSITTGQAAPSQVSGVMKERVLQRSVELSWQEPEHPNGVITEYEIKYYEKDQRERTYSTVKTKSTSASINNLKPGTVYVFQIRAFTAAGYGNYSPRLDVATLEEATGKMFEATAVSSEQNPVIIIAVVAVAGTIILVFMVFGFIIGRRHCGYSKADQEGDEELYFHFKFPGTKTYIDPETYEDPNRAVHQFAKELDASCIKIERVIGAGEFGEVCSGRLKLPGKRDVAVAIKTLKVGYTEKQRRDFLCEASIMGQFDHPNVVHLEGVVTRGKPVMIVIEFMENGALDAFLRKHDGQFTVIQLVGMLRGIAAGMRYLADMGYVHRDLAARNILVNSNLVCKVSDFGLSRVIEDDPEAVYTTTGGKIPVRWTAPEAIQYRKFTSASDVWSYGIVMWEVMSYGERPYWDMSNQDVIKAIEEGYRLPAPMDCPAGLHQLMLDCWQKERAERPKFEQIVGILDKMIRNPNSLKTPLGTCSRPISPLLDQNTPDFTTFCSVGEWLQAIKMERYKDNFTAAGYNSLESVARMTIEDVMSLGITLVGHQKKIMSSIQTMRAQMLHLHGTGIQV

[2] = Pharmacokinetic profile and brain distribution in rats after oral administration; type: in vivo, rats (SD); settings: for Kp / Cmax / Tmax / AUC(0-t) / MRT last / half-life / AUC(0-inf): rat
Description: Example 2 evaluated pharmacokinetic profile and brain distribution of belvarafenib in rats after oral administration.
The rat strain was SD supplied by Orient Bio Inc., Korea.
as §1, with “The rats were kept” for “The mice were kept”, “Techniplast, Italy). Three rats were housed” for “Techniplast, Italy). Twelve mice were housed”
as §2, with “rats” for “mice”, “(10%), PEG 400 (50%),” for “(5%), cremophore EL (5%),”, “(40%).” for “(90%).”, “(169.51” for “(28.08”, “86.93” for “14.40”
In a single one day dosing regimen, rats were fasted overnight. The body weight of the rats was measured on the day of treatment, from which dosing volumes were set. […] The rats were fed 4 hours post-dose.
Blood (0.3 mL) was collected from the abdominal artery at 0.5, 1, 2, 4, 7, 24, 48, and 72 hours after belvarafenib administration. Plasma was obtained by centrifugation at 12,000 rpm for 2 minutes (Eppendorf) and then harvested and stored at −20° C. (Panasonic, MDF-U334-PK) until analysis.
as §3, with “rats” for “mice”
as §4, §5, §6

[3] = single oral 15 mg/kg, pre- and post-dosing periods
[4] = SD (Sprague-Dawley), oral 30 mg/kg, brain
[5] = SD (Sprague-Dawley), oral 30 mg/kg, plasma
[6] = male, SD, oral 15 mg/kg, plasma

## Cc1ccc2c(Nc3cccc(Cl)c3F)nccc2c1NC(=O)c1csc2c(N)ncnc12 [Belvarafenib, 4-amino-N-(1-((3-chloro-2-fluorophenyl)amino)-6-methylisoquinolin-5-yl)thieno[3,2-d]pyrimidine-7-carboxamide]
[1]; oral 30 mg/kg, AUClast brain / AUClast plasma, read-out: B/P ratio
  Kp: 0.8
[1]; oral 30 mg/kg, brain
  Cmax: 6100 ng/g
  Tmax: 7 h
  AUCinf: 100848.0 ng·h/g
  AUClast: 100735.8 ng·h/g
[1]; oral 30 mg/kg, plasma
  AUC(0-t): 133000 ng·h/mL
  Cmax: 6210 ng/mL
  Tmax: 7 h
[1]; male, brain/plasma, oral, 15 mg/kg, read-out: B/P
  Kp: 0.93
[1]; male, in vivo, oral 15 mg/kg, plasma
  MRT last: 14.3 h
[1]; male, oral 15 mg/kg, AUClast brain / AUClast plasma, read-out: B/P ratio
  Kp: 0.929
[1]; male, oral 15 mg/kg, brain
  Cmax: 5240 ng/g
  MRT last: 11.8 h
  Tmax: 7 h
  half-life: 6.3 h
[1]; male, oral 15 mg/kg, plasma
  AUC(0-inf): 84300 ng·h/mL
  AUC(0-t): 84300 ng·h/mL
  Cmax: 4780 ng/mL
  Tmax: 4 h
  half-life: 6.6 h
[1]; male, oral 30 mg/kg, plasma
  AUC(0-inf): 133000 ng·h/mL
  AUC(0-t): 133000 ng·h/mL
[1]; oral 15 mg/kg, brain
  AUCinf: 78297.5 ng·h/g
  AUClast: 78259.6 ng·h/g
[1]; [3]
  general clinical signs: No clinical signs were observed
EPHA7
  inhibition at 1 µM: > 90%
[2]; SD (Sprague-Dawley), oral 30 mg/kg, AUClast brain / AUClast plasma, read-out: B/P ratio
  Kp: 1.2
[2]; [4]
  Cmax: 4880 ng/g
  Tmax: 7 h
[2]; [5]
  AUC(0-t): 98000 ng·h/mL
  Cmax: 4150 ng/mL
  Tmax: 7 h
[2]; SD, oral 30 mg/kg, AUClast brain / AUClast plasma, read-out: B/P ratio
  Kp: 1.2
[2]; SD, oral 30 mg/kg, brain
  Tmax: 4 h
[2]; male, SD, brain/plasma, oral, 15 mg/kg, read-out: B/P
  Kp: 1.38
[2]; male, SD, oral 15 mg/kg, AUClast brain / AUClast plasma, read-out: B/P ratio
  Kp: 1.38
[2]; male, SD, oral 15 mg/kg, brain
  Cmax: 3910 ng/g
  MRT last: 15.5 h
  Tmax: 7 h
  half-life: 9 h
[2]; [6]
  AUC(0-inf): 50600 ng·h/mL
  AUC(0-t): 49400 ng·h/mL
  Cmax: 2130 ng/mL
  MRT last: 18 h
  Tmax: 4 h
  half-life: 12.5 h
[2]; male, SD, oral 30 mg/kg, plasma
  AUC(0-inf): 100000 ng·h/mL
[2]; oral 15 mg/kg, brain
  AUCinf: 68350.0 ng·h/g
  AUClast: 67954.7 ng·h/g
[2]; oral 30 mg/kg, brain
  AUCinf: 115222.3 ng·h/g
  AUClast: 113670.1 ng·h/g
[2]; [3]
  general clinical signs: No clinical signs were observed
